Measurements published in article PMC10609273, “Radiosynthesis and Early Evaluation of a Positron Emission Tomography Imaging Probe [^18F]AGAL Targeting Alpha-Galactosidase A Enzyme for Fabry Disease” (Molecules, 2023).

Columns and labels:
[1] = biological target: T1, CYP2C19 (Homo sapiens, UniProt P33261); assay: Reversible CYP inhibition in pooled HLMs; assay type: in vitro ADME; conditions: 30 µM compound, substrate S-mephenytoin
T1 construct: from tissue; host or cells: pooled human liver microsomes (n = 200)
Description: (§1) All chemicals and reagents including control compounds were purchased from commercial sources such as Sigma-Aldrich or Toronto Research Chemicals. The test article was tested for reversible inhibition of CYPs in human liver microsomes (HLM) (0.2 mg/mL protein) at a concentration range of 0–30 μM. Each condition was incubated in duplicate. The test article (0–30 μM), NADPH, and the CYP-selective probe substrate were incubated in a 96-well plate at 37 °C in 0.1 M potassium phosphate buffer, pH 7.4. The reactions were initiated by adding the HLMs. The total reaction volume was 100 μL.
(§2) After the incubation period (10 min for CYP1A2, 2B6, and 2C9; 15 min for CYP2C19; and 4 min for CYP2C8 and 2D6 to accommodate linear kinetic conditions) at 37 °C, the reactions were terminated by the addition of 100 μL of ice-cold acetonitrile-containing carbutamide as an IS, then centrifuged at 2500× g for 10 min at 2 °C. A 150 μL aliquot of supernatant for each CYP assay, except for CYP1A2, was then transferred to a new plate for analysis. For CYP1A2, 80 μL of supernatant was transferred to the plate and further diluted with 80 μL of water before analysis. All samples were analyzed with liquid chromatography with tandem mass spectrometry (LC–MS/MS).

[2] = biological target: T2, CYP2B6 (Homo sapiens, UniProt P20813); assay: Reversible CYP inhibition in pooled HLMs; assay type: in vitro ADME; conditions: 30 µM compound, substrate bupropion
T2 construct: from tissue; host or cells: pooled human liver microsomes (n = 200)
T2 sequence (P20813 1-491): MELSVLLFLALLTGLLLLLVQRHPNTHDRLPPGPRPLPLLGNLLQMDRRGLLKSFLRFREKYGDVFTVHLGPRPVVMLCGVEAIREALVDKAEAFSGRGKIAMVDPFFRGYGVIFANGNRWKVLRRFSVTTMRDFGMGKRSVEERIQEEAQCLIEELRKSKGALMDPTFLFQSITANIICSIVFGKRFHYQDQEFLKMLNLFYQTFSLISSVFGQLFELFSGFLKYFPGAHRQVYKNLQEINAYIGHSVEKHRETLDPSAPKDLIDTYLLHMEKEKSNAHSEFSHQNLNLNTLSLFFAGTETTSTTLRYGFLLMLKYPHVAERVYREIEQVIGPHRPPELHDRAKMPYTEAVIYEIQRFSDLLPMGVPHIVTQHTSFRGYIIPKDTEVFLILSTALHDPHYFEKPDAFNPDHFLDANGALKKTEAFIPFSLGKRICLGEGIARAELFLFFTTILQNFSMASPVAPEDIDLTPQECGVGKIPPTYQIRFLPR
Description: as §1, §2

[3] = biological target: T3, Chinese hamster ovary cell-derived wild type aGal A (CHO aGal A) (Homo sapiens, UniProt P06280); assay: In vitro affinity assay: residual activity of CHO aGal A enzyme, hydrolysis of 4-methylumbelliferyl-α-D-galactopyranoside; assay type: biochemical; conditions: 1 nM enzyme, 30 min preincubation at room temperature, pH 4.6, 5 mM 4-MUGA substrate
T3 construct: host or cells: Chinese hamster ovary (CHO) cells
T3 sequence (P06280 32-429): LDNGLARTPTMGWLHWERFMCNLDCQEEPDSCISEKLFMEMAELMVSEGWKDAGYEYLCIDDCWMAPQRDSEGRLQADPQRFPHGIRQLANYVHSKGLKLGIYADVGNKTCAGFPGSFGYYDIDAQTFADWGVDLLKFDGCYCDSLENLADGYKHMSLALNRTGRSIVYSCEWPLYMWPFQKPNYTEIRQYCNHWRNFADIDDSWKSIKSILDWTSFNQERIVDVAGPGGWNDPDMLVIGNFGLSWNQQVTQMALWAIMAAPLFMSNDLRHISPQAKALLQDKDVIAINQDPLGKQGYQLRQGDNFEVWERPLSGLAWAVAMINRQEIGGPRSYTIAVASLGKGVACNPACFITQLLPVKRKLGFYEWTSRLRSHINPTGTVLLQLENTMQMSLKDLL
Description: Using an in vitro affinity assay, measurement of residual activity by preincubating the enzyme with varying concentrations of the probe confirmed that the [^19F]
Figure 5 Residual activity of CHO aGal A enzyme measured via hydrolysis of substrate 4−methylumbelliferyl−α−D−galactopyranoside after 30 min of preincubation with AGAL probe.
The IC50 assessment for the aGal inhibitors was performed using the fluorescent substrate in a McIlvaine buffer at pH 4.6. The CHO aGal A enzyme at 1 nM was pre-incubated with different concentrations of the inhibitor or DMSO as control for 30 min at room temperature. The fluorescent substrate 4-methylumbelliferyl-α-D-galactopyranoside (Research Products International company, catalog number M65400, Mount Prospect, IL, USA) was then added to a final concentration of 5 mM. The reaction was quenched with 0.5 M sodium bicarbonate buffer, with pH 10.5, and plates were read using a SpectraMax reader at excitation and emission wavelengths of 360 and 460 nm, respectively. Data were corrected for background fluorescence and IC50 calculation was performed using an inhibitory dose–response curve fitting in GraphPad Prizm 8.0.

[4] = In vitro liver microsomal metabolism study, mouse; assay type: in vitro ADME; conditions: mouse liver microsomes
Description: Metabolic stability was assessed by incubating compounds in the presence of human, rat, and mouse liver microsomal fractions (Xenotech, Kansas City, KS, USA). All chemicals and reagents, including control compounds, were purchased from commercial sources such as Sigma-Aldrich (St. Louis, MO, USA) or Toronto Research Chemicals (North York, ON, Canada). Liver microsomal incubations were conducted with 100 mM phosphate buffer, 0.5 mg/mL of liver microsomal protein, 2 mM NADPH, 2.5 mM UDPGA, 3 mM MgCl2, alamethicin, and 1 μM test article for a total incubation volume of 80 µL. All reagents except the liver microsomes were mixed together and aliquoted (60 μL) into 96-well plates. The reaction was initiated by adding the microsomes (20 μL). At 0, 3, 7, 12, 20, and 30 min time points, the reactions were terminated with the addition of acetonitrile-containing carbutamide (as an internal standard). The terminated samples were then centrifuged at 2 °C to pellet the protein and the supernatant was injected onto an LC–MS. The test article was monitored for loss over time and the t1/2 was determined. The calculated t1/2 was then used as described below to determine the Eh (hepatic extraction ratio) for both human and rat.
The intrinsic clearance (CLint), hepatic clearance (CLh), and hepatic extraction ratio (Eh) were calculated using the equations below. CLint = (0.693/t1/2 in vitro) × (mL incubation volume/mg microsomal protein) × (X mg of microsomal protein/gram of liver) × (Y g of liver/kg of body weight)(1) CLh = Q × CLint/Q + CLint(2) Eh = CLh/Q(3) where: • CLint = intrinsic clearance (calculated from microsomal incubations) • X = 40 for human, 41.5 for rat and 45 for mouse • Y = 21.4 for human, 40 for rat and 50 for mouse • t1/2 = half-life • CLh = hepatic clearance • Q = liver blood flow rate = 1.24 L/h/kg for human, 4.8 L/h/kg for rat, and 5.4 L/h/kg for mouse • Eh = hepatic extraction ratio • CLh = hepatic clearance

T1 sequence (P33261 whole entry): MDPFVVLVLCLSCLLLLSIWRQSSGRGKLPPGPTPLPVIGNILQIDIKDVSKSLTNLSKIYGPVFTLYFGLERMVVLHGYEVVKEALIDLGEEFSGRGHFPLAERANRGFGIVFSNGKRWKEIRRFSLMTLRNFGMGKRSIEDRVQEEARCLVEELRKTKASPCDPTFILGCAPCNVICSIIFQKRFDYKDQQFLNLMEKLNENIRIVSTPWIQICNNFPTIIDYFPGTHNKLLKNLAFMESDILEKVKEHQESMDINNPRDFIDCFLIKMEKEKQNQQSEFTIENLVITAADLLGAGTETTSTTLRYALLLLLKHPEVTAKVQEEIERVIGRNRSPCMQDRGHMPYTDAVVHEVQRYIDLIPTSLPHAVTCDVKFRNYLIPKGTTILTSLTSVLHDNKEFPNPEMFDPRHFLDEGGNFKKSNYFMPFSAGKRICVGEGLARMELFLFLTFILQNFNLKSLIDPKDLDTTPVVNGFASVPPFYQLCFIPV

- reversible inhibition of CYP2C19 activity [1]: no significant loss of CYP activity
- reversible inhibition of CYP2B6 activity [2]: no significant loss of CYP activity
- IC50 [3]: 0.03 µM
- CLh [4]: 68.8 mL/min/kg
- Eh (hepatic extraction ratio) [4]: 0.766
- microsomal stability, clearance in words [4]: highly cleared
- CLint scaled at 1 µM ([4]; 1 μM, NADPH + UDPGA): 293 mL/min/kg
Structure (SMILES): O=C(CCCCCCCn1cc(CCCF)nn1)N1[C@@H]2[C@H](O)[C@@H](O)[C@@H](O)[C@@H](CO)[C@@H]21 [AGAL]
